The target of the data set is IRF5. As to conditions: ASO.

“And” between values parts separate entries of the source, which are not always exact repeats. Equal entries are not always repeated. After the bases stand the sugars from the 5' end (letter, count) and the backbone: PS all phosphorothioate, else s phosphorothioate and o phosphodiester by linkage. Methylation of C is not given here. [mop] = methoxypropylphosphonate linkage; e = 2'-O-(2-methoxyethyl) (MOE); k = constrained ethyl (cEt); d = 2'-deoxy (DNA)

The sequence “GCTTGGTCTTGACCTC (sugars kdddddddddkekeke, PS)” registered a target mRNA inhibition (KARPAS-229, 4 µM) of 17%.
Still for that read-out and setting: then “CCAATTTTGCATTCCA (sugars k2 d9 e3 k2, PS)”, with 30%; and “GAGTGAGACGAGCAAA (sugars kkddddddddkekekk, PS)”, with 17%.
Still for that read-out and setting: the same measure for “GTCTTGACCTCCCGCT (sugars k3 d9 k3 e1, PS)”: 51%; for “GGTCTTGACCTCCCGC (sugars kkkdddddddddkeke, PS)”: 7%; for “CATTCCATATACACAC (sugars kkddddddddddkeke, PS)”: 30%.
The same measure, in the same setting: then “TCACCACTGTGTACCC (sugars kkdddddddddkdkdk, PS)”, with 0%.
With “GAGTCATGGGCTGAGG (sugars kkddddddddddkeke, PS)”, the target mRNA inhibition (KARPAS-229, 4 µM) was determined as 40%.
The same measure, in the same setting: then “TTCTGCAGGGAGTCAG (sugars kddddddddddkekek, PS)”, with 4%.
Still for that read-out and setting: then “TCTGGCCCTTTTGGAA (sugars kdddddddddkekeke, PS)”, with 0%.
CAATTTTGCATTCCAT (sugars k3 d10 k3, PS) gave a target mRNA inhibition (KARPAS-229, 4 µM) of 52%.
Same read-out and setting: then “ACATCTCCACATCAGT (sugars kkkddddddddkekek, PS)”, with 14%; and “GTTCTTGGACTCTCAA (sugars kkkddddddddkekek, PS)”, with 0%; and “ACATCTCCACATCAGT (sugars kkdddddddddkdkdk, PS)”, with 28%.
On the same count and under the same terms, the same measure for “AGGAGTGAGACGAGCA (sugars kddddddddddkekek, PS)”: 37%.
Take “CCATTCTATGCCTTTT (sugars kkdddddddddkekek, PS)”: the target mRNA inhibition is 29% (KARPAS-229, 0.44444 µM); 62% and 61% (KARPAS-229, 4 µM); 81% (KARPAS-229, 12 µM).
Under “KARPAS-229, 4 µM”, “TCACCACTGTGTACCC (sugars k3 d9 k3 e1, PS)” had a target mRNA inhibition of 21%.
The same measure, in the same setting: the same measure for CATTCCATATACACAC (sugars k3 d10 k3, PS): 28%; for “CTTGGTCTTGACCTCC (sugars kdddddddddkekeke, PS)”: 0%.
Same read-out and setting: then “ACCATTCTATGCCTTT (sugars kkddddddddkekekk, PS)”, with 0%.
In the case of GGTGTATTTCCCTGTC (sugars k3 d10 k3, PS), the target mRNA inhibition is, setting by setting: (KARPAS-229, 0.44444 µM) 32% and 25%; (KARPAS-229, 1.33333 µM) 38% and 56%; (KARPAS-229, 12 µM) 69% and 67%.
“ACATCTCCACATCAGT (sugars k3 d9 k3 e1, PS)” gave a target mRNA inhibition (KARPAS-229, 4 µM) of 11%.
Still for that read-out and setting: the same measure for “ACATCTCCACATCAGT (sugars k2 d9 e3 k2, PS)”: 41%; for “CAATTTTGCATTCCAT (sugars kdddddddddkekeke, PS)”: 19%; for “GGTCTTTGAGGTCTGG (sugars kkdddddddddkdkdk, PS)”: 56%.
On the same count and under the same terms, the same measure for “CTGTCACATCTCCACA (sugars kkkddddddddkekek, PS)”: 0%.
The same measure, in the same setting: the same measure for “TTGTCTAGTGTCATGG (sugars kkkdddddddddkeke, PS)”: 39%.
For the sequence “TCTGATATGATACCTA (sugars k3 d2 k1 d7 k3, PS)”, the target mRNA inhibition worked out at 4% (A-431, 0.00412 µM); 8% (A-431, 0.01225 µM); 36% (A-431, 0.03704 µM); 54% (A-431, 0.11111 µM); 69% (A-431, 0.33333 µM); 74% (A-431, 1 µM).
In the case of “CAATGCAACATCCATC (sugars kdddddddddkekeke, PS)”, under “KARPAS-229, 4 µM”, the target mRNA inhibition was found to be 0%.
Same read-out and setting: the same measure for “ACCATTCTATGCCTTT (sugars kkkddddddddkekek, PS)”: 15%.
With “TCCAATTTTGCATTCC (sugars kekdddddddddeekk, PS)”, the target mRNA inhibition runs as follows: (KARPAS-229, 0.44444 µM) 42%; (KARPAS-229, 1.33333 µM) 68%; (KARPAS-229, 4 µM) 78% and 76%; (KARPAS-229, 12 µM) 82%.
For the sequence “GGAAGTGAGTCTCAAA (sugars kkddddddddddkeke, PS)”, the target mRNA inhibition reads like this: (KARPAS-229, 0.44444 µM) 6%; (KARPAS-229, 1.33333 µM) 12%; (KARPAS-229, 4 µM) 55% and 49%; (KARPAS-229, 12 µM) 65%.
With “TCCAATTTTGCATTCC (sugars kddddddddddkekek, PS)”, the target mRNA inhibition (KARPAS-229, 4 µM) was 37%.
Same read-out and setting: then “CACCACTGTGTACCCC (sugars kkddddddddkekekk, PS)”, with 0%; and ACGAGCAAAGGGTGAG (sugars k3 d10 k3, PS), with 47%.
“ATGAGTCATGGGCTGA (sugars kdddddddddkekeke, PS)” showed a target mRNA inhibition (KARPAS-229, 4 µM) of 7%.
The same measure, in the same setting: the same measure for “TTCTTGGACTCTCAAG (sugars kkddddddddkekekk, PS)”: 0%; for “CGGTCTTTGAGGTCTG (sugars kkkddddddddkdkdk, PS)”: 57%; for “CAGGTTCTTGGACTCT (sugars kdddddddddkekeke, PS)”: 0%.
For the setting “KARPAS-229, 4 µM”, “CATTCCATATACACAC (sugars kkddddddddkekekk, PS)” registered a target mRNA inhibition of 17%.
Sequence “AGGAGTGAGACGAGCA (sugars kkkddddddddkdkdk, PS)” had a target mRNA inhibition (KARPAS-229, 4 µM) of 37%.
Still for that read-out and setting: the same measure for GGTGAGTAGGACGAGT (sugars k3 d10 k3, PS): 48%.
As to “TCCAATTTTGCATTCC (sugars kdddddddddkekeke, PS)”, the target mRNA inhibition (KARPAS-229, 4 µM) amounted to 6%.
On the same count and under the same terms, the same measure for “CAATTTTGCATTCCAT (sugars kddddddddddkekek, PS)”: 21%; for “ATGGTGTTATCTCCGT (sugars kddddddddddkekek, PS)”: 0%.
On the same count and under the same terms, then “CCTTCTGCAGGGAGTC (sugars kdddddddddkekeke, PS)”, with 0%.
Same read-out and setting: then “TTATTTCTGCTCCAGG (sugars kkddddddddkekekk, PS)”, with 0%.
In turn, “CCAATGCAACATCCAT (sugars k3 d9 k3 e1, PS)” registered a target mRNA inhibition (KARPAS-229, 4 µM) of 16%.
The same measure, in the same setting: the same measure for “AGGAAGTGAGTCTCAA (sugars k3 d9 k3 e1, PS)”: 47%.
The same measure, in the same setting: the same measure for “TGCAACATCCATCAAT (sugars k3 d10 k2 d1, PS)”: 0%.
Still for that read-out and setting: then “GTGTATTTCCCTGTCT (sugars k2 d9 e3 k2, PS)”, with 16%.
For the setting “KARPAS-229, 4 µM”, “GGTCTTGACCTCCCGC (sugars k3 d9 k3 e1, PS)” returned a target mRNA inhibition of 22%.
On the same count and under the same terms, then “GCATTCCATATACACA (sugars kekdddddddddeekk, PS)”, with 48%; and “CACATCTCCACATCAG (sugars k3 d9 k3 e1, PS)”, with 25%.
On the same count and under the same terms, the same measure for “GTCTAGTGTCATGGAA (sugars kdddddddddkekeke, PS)”: 35%.
On the same count and under the same terms, then “GTCTTTGAGGTCTGGG (sugars kkddddddddkekekk, PS)”, with 34%; and “TGTCTAGTGTCATGGA (sugars k2 d8 e4 k2, PS)”, with 54%; and “TCTTGACCTCCCGCTG (sugars kkddddddddkekekk, PS)”, with 19%.
“GAGTCATGGGCTGAGG (sugars k3 d9 k3 e1, PS)” registered a target mRNA inhibition (KARPAS-229, 4 µM) of 0%.
Take “TGAGTCATGGAGCTGAG (sugars kdddddddddkekeked, PS)”: the target mRNA inhibition (KARPAS-229, 4 µM) was 0%.
Still for that read-out and setting: then “AGGAGTGAGACGAGCA (sugars kdddddddddkekeke, PS)”, with 0%.
On the same count and under the same terms, the same measure for TAATAGGAGTGAGACG (sugars k3 d10 k3, PS): 12%.
On to CTTTTTGCTCTAAACC (sugars k3 d10 k3, PS), for which, under “KARPAS-229, 4 µM”, the target mRNA inhibition was found to be 0%.
The same measure, in the same setting: the same measure for “GCTGTCACATCTCCAC (sugars kekdddddddddeekk, PS)”: 0%; for “CATTCCATATACACAC (sugars k2 d9 e3 k2, PS)”: 21%.
Consider “ACTGACACAGGCGGAT (sugars kkdddddddddkekek, PS)”, for which the target mRNA inhibition (KARPAS-229, 4 µM) stood at 0%.
Regarding “GCTGTCACATCTCCAC (sugars kkdddddddddkekek, PS)”, where the note is “KARPAS-229, 4 µM”, the target mRNA inhibition is 5%.
Same read-out and setting: then TTGCCTTCTGCAGGGA (sugars k3 d10 k3, PS), with 0%.
Still for that read-out and setting: then “TGAGTCTCAAACCAGG (sugars k2 d8 e4 k2, PS)”, with 0%.
As to “CTGATATGATACCTAA (sugars k3 d10 k3, linkages s5 [mop]1 s9)”, the target mRNA inhibition was found to be 0% (A-431, 0.00412 µM); 15% (A-431, 0.01225 µM); 25% (A-431, 0.03704 µM); 54% (A-431, 0.11111 µM); 71% (A-431, 0.33333 µM); 71% (A-431, 1 µM).
Where the note is “KARPAS-229, 4 µM”, “AGATGGTGTTATCTCC (sugars kdddddddddkekeke, PS)” yielded a target mRNA inhibition of 0%.
Same read-out and setting: then “GTTCTTGGACTCTCAA (sugars kdddddddddkekeke, PS)”, with 0%.
Same read-out and setting: then “ACCACTGTGTACCCCA (sugars kkddddddddkekekk, PS)”, with 15%.
Still for that read-out and setting: then “AGTCATGGGCGTGAGGC (sugars kkddddddddkekekkd, PS)”, with 17%.
As to “CTTGGTCTTGACCTCC (sugars k2 d9 e3 k2, PS)”, the target mRNA inhibition (KARPAS-229, 4 µM) turned out to be 11%.
The same measure, in the same setting: then “GTGAGTCTCAAACCAG (sugars kkddddddddddkeke, PS)”, with 31%; and TGATTCCAATTTTGCA (sugars k3 d10 k3, PS), with 17%.
“CACTGACACAGGCGGA (sugars kkkddddddddkekek, PS)” yielded a target mRNA inhibition (KARPAS-229, 4 µM) of 0%.
On the same count and under the same terms, the same measure for “CCCAATGCAACATCCA (sugars kkkdddddddddkeke, PS)”: 0%; for TCTTGTCTAGTGTCAT (sugars k3 d10 k3, PS): 0%.
Regarding “AGGTTCTTGGACTCTC (sugars kkkddddddddkdkdk, PS)”, the target mRNA inhibition (KARPAS-229, 4 µM) came out at 0%.
